The assay addresses T1, chimpanzee GPR105 protein (Pan troglodytes, UniProt A0A2J8P2M1).
T1 construct: expressed in transfected cells
T1 sequence (A0A2J8P2M1 1-338): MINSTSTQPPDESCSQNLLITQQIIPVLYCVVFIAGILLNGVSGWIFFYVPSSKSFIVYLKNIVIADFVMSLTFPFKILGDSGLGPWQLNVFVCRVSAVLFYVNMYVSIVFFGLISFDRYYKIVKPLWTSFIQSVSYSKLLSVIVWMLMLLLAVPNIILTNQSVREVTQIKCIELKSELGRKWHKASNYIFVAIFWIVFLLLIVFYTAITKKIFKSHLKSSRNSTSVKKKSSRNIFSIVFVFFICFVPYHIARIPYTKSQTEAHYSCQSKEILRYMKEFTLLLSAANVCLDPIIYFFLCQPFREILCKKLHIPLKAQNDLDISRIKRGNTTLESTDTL
As to the kind of experiment: Cell-Binding Assay: FLIPR calcium signaling in HEK/GPR105/Gqi5 cells, inhibition of UDP-glucose agonist. The note with it: HEK cells expressing chimpanzee GPR105 and Gqi5; UDP-glucose agonist at EC80; inhibition of Ca2+ signaling by FLIPR. It is filed as cell-based. The procedure:
A stable HEK clonal cell line expressing the chimpanzee GPR105 protein and the chimeric G protein Gqi5 was developed. The chimeric Gqi5 forces the coupling of GPR105 through the Gq (calcium) pathway and allows for monitoring of calcium signaling using a calcium binding fluorescent dye and the FLIPR (fluorometric imaging plate reader, MDS Sciex). 12,500 HEK/GPR105/Gqi5 expressing cells were plated in 25 μL Dulbecco's Modified Eagle's Medium (DMEM) containing 10% fetal bovine serum (FBS) onto 384-well, poly-D-lysine coated plates. Cells were incubated overnight at 37° C. and 5% CO2 to form a monolayer. On the following day, 30 μl, of fluorescent no-wash dye was added to the cell monolayer and the plate was incubated for […] at 37° C., 5% CO2. […] of compound in 100% DMSO was added to cell/dye incubation using acoustic dispensing (Echo™, Labcyte). Following a 20 minute incubation of compound at room temperature, 6.25 μL of UDP-glucose agonist (at EC80) in Hank's Balanced Salt Solution (HBSS) containing 20 mM Hepes was added to cells and Ca^2+ signaling was monitored by FLIPR. Quantitation of the % inhibition of Ca^2+ signaling by antagonist was calculated using the maximum fluorescent signal detected. IC50's for the compounds of structural formula (I) were calculated as follows:
a.) Basal=incubation of cells+DMSO+Buffer; b.) EC80=incubation of cells of DMSO+agonist to achieve 80% maximum stimulation of calcium release; c.) Compound=incubation of cells+antagonist in DMSO+EC80 agonist; d.) Calcium release monitored by Fluorescence (RFU relative fluorescence units) using the FLIPR; e.) The percentage of inhibition was calculated according to the equation: (1−(compound sample−Basal)/(EC80−Basal))×100; f.) The percentage of inhibition at each dose was plotted, the Four Parameter Logistic Fit performed to draw the curve and the IC50 is the compound dose where the % inhibition=50%.

One may read the IC50 as the concentration at which inhibition is half-maximal. Turning to `O=C(O)c1cc(-c2csc(C(O)C(F)F)c2)c2ccc(-c3ccc(C(F)(F)F)cc3)cc2c1` (centres unmarked), the IC50 amounted to 7.1 nM.

As to `O=C(O)c1cc(-c2ccc([C@@H](O)C(F)(F)F)cc2)c2ccc(-c3ccc(C(F)(F)F)cc3)cc2c1`, the IC50 came to 11.3 nM.

Take `O=C(O)c1cc(-c2ccc(C(O)C(F)(F)F)cc2)c2ccc(-c3ccc(C(F)(F)F)cc3)cc2c1` (centres unmarked): the half-inhibitory concentration (IC50) was 13 nM.

As for `O=C(O)c1cc(-c2ccc(C3(O)CCNCC3)cc2)c2ccc(-c3ccc(C(F)(F)F)cc3)cc2c1`, the IC50 came to 6.3 nM.

In the case of `Cc1cccc(C)c1COc1ccc2c(-c3ccc(O)cc3)cc(C(=O)O)cc2c1`, the 50% inhibitory concentration (IC50) came out at 18.4 nM.

For `O=C(O)c1cc(-c2ccc([C@@H](O)C(F)F)cc2)c2ccc(-c3ccc(C(F)(F)F)cc3)cc2c1`, the IC50 is 5.4 nM.

Take `O=C(O)c1cc2cc(-c3ccc(C(F)(F)F)cc3)ccc2c(-c2ccc([C@H](O)C(F)(F)F)cc2)c1F`: the IC50 worked out at 25.5 nM.

As to `O=C(O)c1cc(-c2ccsc2)c2ccc(OCc3c(Cl)cccc3Cl)cc2c1`, the IC50 was determined as 9.4 nM.

As for `O=C(O)c1cc(-c2ccc([C@@H](O)C(F)F)cc2)c2ccc(-c3ccc(F)cc3)cc2c1`, the IC50 was 14 nM.

With `CC(=O)c1ccc(-c2cc(C(=O)O)cc3cc(OCc4c(C)cccc4C)ccc23)cc1`, the IC50 was 17.5 nM.

Regarding `O=C(O)c1cc(-c2ccsc2)c2ccc(OCc3c(Cl)ccc(Cl)c3Cl)cc2c1`, the half-maximal inhibitory concentration (IC50) was 7.3 nM.

With `O=C(O)c1cc(-c2ccsc2)c2ccc(OCc3cc(C(F)(F)F)ccc3Cl)cc2c1`, the IC50 was determined as 26 nM.

As to `O=C(O)c1cc2cc(-c3ccc(C(F)(F)F)cc3)ccc2c(-c2ccc([C@@H](O)C(F)F)cc2)c1F`, the IC50 came to 24.8 nM.

With `Cc1cccc(C)c1COc1ccc2c(-c3ccc(C=O)cc3)cc(C(=O)O)cc2c1`, the IC50 was determined as 22.5 nM.

`O=C(O)c1cc(-c2ccsc2)c2ccc(OCc3c(Cl)cccc3Br)cc2c1`: the concentration for half-maximal inhibition (IC50) was found to be 17.8 nM.

For `Cc1cccc(C)c1COc1ccc2c(-c3ccc(S(C)(=O)=O)cc3)cc(C(=O)O)cc2c1`, the IC50 stood at 11.9 nM.

In the case of `CS(=O)(=O)c1cc(-c2cc(C(=O)O)cc3cc(-c4ccc(C(F)(F)F)cc4)ccc23)cs1`, the IC50 is 12.2 nM.

For `CS(=O)(=O)c1cc(-c2cc(C(=O)O)cc3cc(-c4ccc(OC(F)(F)F)cc4)ccc23)cs1`, the IC50 was found to be 23.9 nM.

Turning to `Cc1cccc(C)c1COc1ccc2c(-c3ccc4c(c3)OCO4)cc(C(=O)O)cc2c1`, the IC50 amounted to 19.4 nM.

With `CSc1ccc(-c2ccc3c(-c4ccc([C@@H](O)C(F)F)cc4)cc(C(=O)O)cc3c2)cc1`, the 50% inhibitory concentration (IC50) worked out at 12.4 nM.

Consider `O=C(O)c1cc(-c2ccsc2)c2ccc(OCc3c(F)cc(F)cc3F)cc2c1`, for which the 50% inhibitory concentration (IC50) amounted to 10.5 nM.

Turning to `Cc1cccc(C)c1COc1ccc2c(-c3ccsc3)cc(C(=O)O)cc2c1`, the IC50 came out at 16.3 nM.

On to `Cc1ccc(C(F)(F)F)cc1COc1ccc2c(-c3ccsc3)cc(C(=O)O)cc2c1`, for which the IC50 was found to be 16.8 nM.

On to `O=C(O)c1cc(-c2ccsc2)c2ccc(OCc3c(F)cccc3Cl)cc2c1`, for which the 50% inhibitory concentration (IC50) was found to be 12.5 nM.

Take `COc1ccccc1COc1cc(C(=O)O)cc2cc(OCc3c(C)cccc3C)ccc12`: the IC50 stood at 14.1 nM.

Regarding `O=C(O)c1cc(-c2ccsc2)c2ccc(OCc3c(Cl)cncc3Cl)cc2c1` [drawing 14], the IC50 turned out to be 7.5 nM.

Turning to `O=C(O)c1cc(-c2ccccc2)c2ccc(OCc3c(Cl)ccc(Cl)c3Cl)cc2c1`, the IC50 was 21.7 nM.

With `Cc1cc(F)cc(C)c1COc1ccc2c(-c3ccsc3)cc(C(=O)O)cc2c1`, the IC50 amounted to 14.4 nM.

Turning to `C[S+]([O-])c1ccc(-c2cc(C(=O)O)cc3cc(-c4ccc(C(F)(F)F)cc4)ccc23)cc1` (centres unmarked), the IC50 was 13.9 nM.

In the case of `O=C(O)c1cc(-c2ccc(C3CCNCC3)cc2)c2ccc(-c3ccc(C(F)(F)F)cc3)cc2c1`, the IC50 was 2.2 nM.

On to `Cc1cccc(C)c1COc1ccc2c(-c3ccc(C(=O)O)cc3)cc(C(=O)O)cc2c1`, for which the IC50 was 11 nM.

For `Cc1ccc(Cl)c(COc2ccc3c(-c4ccsc4)cc(C(=O)O)cc3c2)c1F`, the half-maximal inhibitory concentration (IC50) was found to be 20.3 nM.

As to `Cc1cccc(C)c1COc1ccc2c(-c3ccc(CO)cc3)cc(C(=O)O)cc2c1`, the IC50 turned out to be 16.6 nM.

`Cc1cccc(C)c1COc1ccc2c(OCc3ccccc3)cc(C(=O)O)cc2c1`: the IC50 worked out at 21.2 nM.

As for `Cc1cccc(C)c1COc1ccc2c(-c3ccc(C(C)(C)O)cc3)cc(C(=O)O)cc2c1`, the IC50 worked out at 16.1 nM.

Consider `O=C(O)c1cc(-c2ccsc2)c2ccc(-c3ccc(OC(F)(F)F)cc3)cc2c1`, for which the IC50 stood at 12.7 nM.

For the compound `O=C(O)c1cc(-c2ccc(-c3nnc[nH]3)cc2)c2ccc(-c3ccc(C(F)(F)F)cc3)cc2c1`, the IC50 is 13.3 nM.

Regarding `O=C(O)c1cc(-c2ccsc2)c2ccc(OCc3c(F)cccc3F)cc2c1`, the IC50 was found to be 22.6 nM.

As for `O=C(O)c1cc(-c2ccc(-c3cn4cccnc4n3)cc2)c2ccc(-c3ccc(C(F)(F)F)cc3)cc2c1`, the IC50 stood at 3 nM.

With `O=C(O)c1cc(-c2ccsc2)c2ccc(OCc3c(Cl)cncc3Cl)cc2c1` [drawing 30], the IC50 was 15.1 nM.

For the compound `O=C(O)c1cc(-c2ccsc2)c2ccc(OCc3c(Br)cccc3Br)cc2c1`, the IC50 was 24.3 nM.

The record behind these values is patent US20100298347A1, “SUBSTITUTED 2-NAPHTHOIC ACIDS AS ANTAGONISTS OF GPR105 ACTIVITY” (MERCK FROSST CANADA LTD, priority 2007, published 2010).
